Experimental findings from patent publication US6207677A, “Piperidine derivatives having anxiolytic effect” (H. Lundbeck A/S, priority 1991, dated 2001) are described below.

pIC50: −log10 of the molar value.

The target of this assay is sigma receptors. As to the kind of experiment: Inhibition of 3H-DTG binding to sigma receptors in rat brain in vitro. Particulars: 2 nM 3H-DTG, rat brain without cerebellum, 25° C., 20 min. The protocol: INHIBITION OF 3H-DTG BINDING TO SIGMA RECEPTORS IN RAT BRAIN IN VITRO
By this method the inhibition by drugs of the binding of 2 nM ^3 H-DTG (1,3,di-o-tolyl guanidine) to sigma receptors in homogenates or membranes from rat brain without cerebellum is determined in vitro as modified from Weber et al. Proc. Natl. Acad. Sci. 1986, 83,8784.
Homogenate: Rats (150-250 g) are decapitated and the brains (without cerebellum) quickly removed and placed on ice, weighed and homogenized in 100 vol ice-cold (0° C.) 50 mM Tris-buffer (pH 7.7) in an ethanol rinsed glass/teflon homogenizer at 0° C. and kept on ice until use.
P2-membranes: Brains are homogenized in 10 vol 0.32 M sucrose in an ethanol rinsed glass/teflon homogenizer with 10 strokes up and down. The homogenate is centrifuged for 10 min at 900×gm at 4° C. The supernatant is decanted and centrifuged for 20 min at 50,000 gm at 4° C. The resulting pellet is resuspended in 10 vol ice-cold […] Tris-buffer (pH 7.7) and incubated for 30 min. at 37° C. The membrane suspension is then centrifuged for further 20 min. at 50,000 gm at 4° C. The pellet is resuspended in 50 vol. of ice-cold Tris-buffer and used immediately.
0.5 ml 50 mM Tris-buffer (pH 7.7), 0.25 ml displacer (6×100 μM DTG, 6× [test compound], or Tris-buffer), and 0.25 ml 6×2 nM. ^3 H-DTG are mixed into 5 ml s plastic test tubes and kept at 4° C. until use. The binding reaction is initiated by mixing 0.5 ml tissue suspension into this solution and incubate at 25° C. for 20 min. Glass fiber filters (Whatman GF/B) are placed on the filter machine which is then closed tightly. Just before filtration vacuum is applied, and the filters washed with 0.1% PEI solution from a spray bottle followed by one wash with Tris-buffer.
The binding reaction is stopped by filtration of the assay mixture at reduced pressure (750 mbar) followed by further 3 washes with 5 ml ice-cold Tris-buffer. The filters are then placed in counting vials and 4 ml scintillation solution added. The vials are counted in a Beckmann scintillation counter.
50 mM Tris-buffer pH 7.7: 7.38 g Trizma--7.7 plus distilled H2 O ad 1 liter. 100 ml 10% polyethylenimine (PEI): 100 ml dest. H2 O is added to approx. 20 g 50% PEI which is solubilized by stirring and heating. Diluted (1+99) before use. 6×2 nM ^3 H-DTG: The exact volume depends on the actual concentration of the batch, but is made as close as possible to 12 nM. The containers for the radioactive solution is rinsed in 96% ethanol before use.
^3 H-DTG was obtained from NEN Research Products, Du Pont Denmark. Specific activity 62.3 Ci/mmol.
The known sigma receptor ligands BMY 14802 and rimcazole were included in the test for comparison purposes.
Broadly, the pIC50 is the negative decadic logarithm of the IC50, by convention in mol/L. The compound `Fc1ccc(C2CCN(CCCC3COc4ccc(F)cc43)CC2)cc1` (stereo not drawn) [Compound 11a, 2,3-Dihydro-5-fluoro-3-[3-(4-(4-fluorophenyl)-1-piperidinyl)-1-propyl]benzofuran] showed a negative-log IC50 (pIC50) of 9.51.

Take `O=S(=O)(CCCN1CCC2(CC1)OCc1ccccc12)C1CCCCC1` [Compound 2r, 1'-(3-Cyclohexylsulfonyl-1-propyl)spiro[isobenzofuran-1(3H),4'-piperidine]]: the negative-log IC50 (pIC50) is 8.52.

`c1ccc(CCCCCN2CCC3(CC2)OCc2ccccc23)cc1` [Compound 4e, 1'-(5-Phenyl-1-pentyl)-spiro[isobenzofuran-1 (3h),4'-piperidine]] gave a negative logarithm of the IC50 (pIC50) of 9.70.

Regarding `c1ccc2c(c1)COC21CCN(CCCCC2CCCCC2)CC1` [Compound 2b, 1'-(4-Cyclohexyl-1-butyl)spiro[isobenzofuran-1(3H), 4'-piperidine)], the negative logarithm of the IC50 (pIC50) was 10.15.

The compound `c1ccc2c(c1)COC1(CCN(CCCCc3noc4ccccc34)CC1)C2` [Compound 19c, 1-(4-(1,2-Benzisoxazol-3-yl)-1-butyl)spiro[3H-2-benzopyran-3,4'-piperidine]] had a pIC50 of 9.08.

With `Fc1ccc(-n2cc(CCCCN3CCC(c4ccccc4)CC3)c3ccccc32)cc1` [Compound 5f, 1-(4-Fluorophenyl)-3-[4-(4-phenyl-1-piperidyl)-1-butyl]indole], the pIC50 was 10.40.

Consider `Cc1ccc(C2CCN(CCCCc3cn(-c4ccc(F)cc4)c4ccccc34)CC2)cc1` [Compound 9m, 1-(4-Fluorophenyl)-3-[4-(4-(4-methylphenyl)-1-piperidyl)-1-butyl]indole], for which the pIC50 is 8.80.

`Fc1ccc(C2CC3CCC(C2)N3CCCCc2noc3ccccc23)cc1` (stereo not drawn) [Compound 24] had a pIC50 of 8.72.

Consider `c1cncc(-n2cc(CCCCN3CCC4(CC3)COCc3ccccc34)c3ccccc32)c1` [Compound 9k, 1'-[4-[1-(3-Pyridinyl)-3-indolyl]-1-butyl]spiro[1H-2-benzopyran-4(3H), 4'-piperidine]], for which the negative-log IC50 (pIC50) was 9.04.

`COc1ccccc1C1CCN(CCCCc2c[nH]c3ccccc23)CC1` [Compound 2gg, 3-[4-(4-(2-Methoxyphenyl)-1-piperidinyl)-1-butyl]indol]: the pIC50 is 8.48.

Compound `c1ccc(CCN2CCC3(CC2)OCc2ccccc23)cc1` [Compound 4c, 1'-(2-Phenyl-1-ethyl)-spiro[isobenzofuran-1(3h),4'-piperidine]] showed a pIC50 of 8.54.

In the case of `CN(C)c1ccc(C2CCN(CCCCc3cn(-c4ccc(F)cc4)c4ccccc34)CC2)cc1` [Compound 9o, 1-(4-Fluorophenyl)-3-[4-(4-(4-dimethylaminophenyl)-1-piperidyl)-1-butyl]indole], the negative logarithm of the IC50 (pIC50) was 8.17.

Consider `Fc1ccc2c(c1)C(CCCCN1CCC3(CC1)OCc1ccccc13)CO2` (stereo not drawn) [Compound 12, 1'-(4-(2,3-Dihydro-5-fluoro-benzofuran-3-yl)-1-butyl]-spiro[isobenzofuran-1(3H),4'-piperidine]], for which the pIC50 is 9.52.

As to `c1ccc2c(c1)COC21CCN(CCCc2noc3ccccc23)CC1` [Compound 20, 1'-(3-(1,2-Benzisoxazol-3-yl)-1-propyl)spiro[isobenzofuran-1(3H) ,4'-piperidine]], the negative logarithm of the IC50 (pIC50) was 9.20.

The compound `c1ccc2c(c1)COC21CCN(CCCSc2csc3ccccc23)CC1` [Compound 31a] had a pIC50 of 9.64.

With `Cc1ccc(-n2cc(CCCCN3CCC4(CC3)COCc3ccccc34)c3ccccc32)cc1` [Compound 9i, 1'-(4-(1-(4-Methylphenyl)-3-indolyl]-1-butyl]spiro[1H-2-benzopyran-4(3H), 4'-piperidine]], the negative logarithm of the IC50 (pIC50) was 9.21.

The compound `c1ccc(CCCCN2CCC3(CC2)Oc2ccccc2O3)cc1` [Compound 25a, 1'-(4-Phenyl-1-butyl)-spiro[1,3-benzodioxole-2,4'-piperidine]] had a pIC50 of 7.96.

As for `C1=C(CCCCN2CCC3(CC2)OCc2ccccc23)c2ccccc2C1` [Compound 27, 1'-(4-(1H-Inden-3-yl)-1-butyl)-spiro[isobenzofuran-1(3H) ,4'-piperidine]], the pIC50 is 9.96.
